This is an account of results in patent EP4273147A1, “SUBSTITUTED SPIROLACTAMS, SALTS THEREOF AND THEIR USE AS HERBICIDALLY ACTIVE SUBSTANCES” (Bayer Aktiengesellschaft, priority 2022, dated 2023).

For data set [1], the system named is VERPE. The data set is described as follows: Herbicidal pre-emergence action, section C (Table C11). The conditions noted are these: application rate 320 g/ha; visual grading after ca. 3 weeks. The format is in vivo, Veronica persica.
Data set [2] relates to ALOMY. The data set is described as follows: Herbicidal pre-emergence action, section C (Table C2). The data set is classed as in vivo, Alopecurus myosuroides. Conditions: application rate 80 g/ha; visual grading after ca. 3 weeks.
Data set [3] deals with BRSNW. The data set is described as follows: Post-emergence effects on crop plants (Table F5). Conditions: application rate 320 g/ha, crop plant BRSNW. The format is in vivo, Brassica napus. From the text:
(§1) 2 to 3 weeks after sowing, the test plants were sprayed in the single-leaf stage.

Data set [4] concerns SETVI. The data set is described as follows: Herbicidal pre-emergence action, section C (Table C10). The data set is classed as in vivo, Setaria viridis. Conditions: application rate 320 g/ha; visual grading after ca. 3 weeks.
The subject of data set [5] is MATIN. Description: Herbicidal post-emergence action (Table B6). The data set is classed as in vivo, Matricaria inodora. The conditions noted are these: application rate 1280 g/ha; rated visually after about 3 weeks. Put shortly:
(§2)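 Weed seeds sown in sandy loam in pots (one mono- or dicot species per pot), grown in greenhouse; plants treated post-emergence at one-leaf stage, 2–3 weeks after sowing. After ~3 weeks, damage scored visually vs untreated controls (100% = plants dead, 0% = like controls).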

Data set [6] relates to MATIN. The data set is described as follows: Herbicidal pre-emergence action (Table A4). The format is in vivo, Matricaria inodora. The conditions noted are these: application rate 1280 g/ha; visual grading after ca. 3 weeks. Put shortly: (§3)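 One monocotyledonous and one dicotyledonous weed species shared each pot. Seeds were sown in sandy loam and covered over with soil.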

The test system of data set [7] is SETVI. Description: Herbicidal pre-emergence action (Table A5). The data set is classed as in vivo, Setaria viridis. The conditions noted are these: application rate 320 g/ha; visual grading after ca. 3 weeks. Put shortly:
as §3

The subject of the next data set is ABUTH. Description: Herbicidal pre-emergence action (Table A1). The data set is classed as in vivo, Abutilon theophrasti. The conditions noted are these: application rate 1280 g/ha; visual grading after ca. 3 weeks vs untreated controls (100% = plants have died off, 0% = as control plants). Put shortly: as §3
Data set [8] concerns ZEAMX. The data set is described as follows: Post-emergence effects on crop plants (Table F1). The format is in vivo, Zea mays. The conditions noted are these: application rate 320 g/ha, crop plant ZEAMX.
Description: as §1

For another data set, the system named is GLXMA. Description: Post-emergence effects on crop plants (Table F4). The conditions noted are these: application rate 80 g/ha, crop plant GLXMA. The data set is classed as in vivo, Glycine max.
Description: as §1

For data set [9], the system named is POAAN. Description: Herbicidal pre-emergence action (Table A7). The conditions noted are these: application rate 320 g/ha; visual grading after ca. 3 weeks. The data set is classed as in vivo, Poa annua. Put shortly:
as §3

The test system of data set [10] is TRZAS. Description: Post-emergence effects on crop plants (Table F2). The data set is classed as in vivo, Triticum aestivum. The conditions noted are these: application rate 80 g/ha, crop plant TRZAS.
Description: as §1

Data set [11] deals with LOLRI. Description: Herbicidal pre-emergence action, section C (Table C7). The format is in vivo, Lolium rigidum. The conditions noted are these: application rate 320 g/ha; visual grading after ca. 3 weeks.
The subject of data set [12] is ZEAMX. Description: Pre-emergence effects on crop plants (Table D1). Conditions: crop plant; application rate 80 g/ha; visual grading after ca. 3 weeks. The format is in vivo, Zea mays.
For a further data set, the system named is STEME. Description: Herbicidal pre-emergence action (Table A6). The format is in vivo, Stellaria media. The conditions noted are these: application rate 320 g/ha; visual grading after ca. 3 weeks. Put shortly: as §3
For data set [13], the system named is LOLRI. Description: Herbicidal pre-emergence action (Table A3). The format is in vivo, Lolium rigidum. Conditions: visual grading after ca. 3 weeks. Put shortly: as §3
Data set [14] deals with TRZAS. Description: Pre-emergence effects on crop plants (Table D2). The data set is classed as in vivo, Triticum aestivum. Conditions: crop plant; application rate 80 g/ha; visual grading after ca. 3 weeks.
Data set [15] has as its system ECHCG. Description: Herbicidal pre-emergence action, section C (Table C6). The data set is classed as in vivo, Echinochloa crus-galli. Conditions: application rate 80 g/ha; visual grading after ca. 3 weeks.
Data set [16] deals with ALOMY. The data set is described as follows: Herbicidal post-emergence action, section E (Table E2). Conditions: application rate 320 g/ha; assessed visually after ca. 3 weeks. The data set is classed as in vivo, Alopecurus myosuroides.
Description: as §1

The test system of data set [17] is ORYZA. The data set is described as follows: Post-emergence effects on crop plants (Table F3). The format is in vivo, Oryza sativa. Conditions: application rate 320 g/ha, crop plant ORYZA.
Description: as §1

The subject of data set [18] is ECHCG. Description: Herbicidal pre-emergence action (Table A2). The format is in vivo, Echinochloa crus-galli. Conditions: application rate 320 g/ha; visual grading after ca. 3 weeks. Put shortly: as §3
Data set [19] concerns ORYZA. Description: Pre-emergence effects on crop plants (Table D3). Conditions: crop plant; application rate 320 g/ha; visual grading after ca. 3 weeks.
For data set [20], the system named is POAAN. Description: Herbicidal post-emergence action (Table B7). The format is in vivo, Poa annua. Put shortly:
as §2

Another data set has as its system VIOTR. Description: Herbicidal pre-emergence action, section C (Table C12). The format is in vivo, Viola tricolor. Conditions: application rate 320 g/ha; visual grading after ca. 3 weeks.
Data set [21] deals with BRSNW. Description: Pre-emergence effects on crop plants (Table D5). The data set is classed as in vivo, Brassica napus. The conditions noted are these: crop plant; application rate 320 g/ha; visual grading after ca. 3 weeks.
The subject of data set [22] is ALOMY. Description: Herbicidal post-emergence action (Table B2). The conditions noted are these: application rate 1280 g/ha; rated visually after about 3 weeks. The data set is classed as in vivo, Alopecurus myosuroides. As for the experimental part:
Seeds of mono- and dicotyledonous weed plants were placed in plastic pots in sandy loam soil (doubly sown with in each case one species of mono- or dicotyledonous weed plants per pot), covered with soil and cultivated in a greenhouse under controlled growth conditions. 2 to 3 weeks after sowing, the test plants were treated at the one-leaf stage. […] After the test plants had been kept in the greenhouse under optimum growth conditions for about 3 weeks, the activity of the preparations was rated visually in comparison to untreated controls. For example, 100% activity = the plants have died, 0% activity = like control plants.

Data set [23] deals with ECHCG. The data set is described as follows: Herbicidal post-emergence action (Table B3). The data set is classed as in vivo, Echinochloa crus-galli. Conditions: application rate 1280 g/ha; rated visually after about 3 weeks. Put shortly:
as §2

The test system of data set [24] is VERPE. Description: Herbicidal post-emergence action (Table B10). The format is in vivo, Veronica persica. Put shortly: as §2

Description for VIOTR: Seeds of mono- and dicotyledonous weed plants and crop plants were sown, in plastic or organic planting pots, in sandy loam and covered with soil. The compounds according to the invention, formulated in the form of wettable powders (WP) or as emulsifiable concentrates (EC), were applied to the surface of the covering soil as aqueous suspension or emulsion, with the addition of 0.5% of an additive, at an application rate of 600 1 of water/ha (converted). Following treatment, the pots were placed in a greenhouse and kept under optimum growth conditions for the test plants.

For `O=C1N(Cc2cccc(F)c2F)CCCC12CCCN(Cc1cccc(F)c1F)C2=O` (racemic) [I-012], the “pre-emergence activity against VERPE” value in the data set on VERPE [1] is on record as 80%. For the same compound, the “pre-emergence activity against ALOMY” value with ALOMY [2] stood at 90%. The “post-emergence activity against BRSNW” value in the data set on BRSNW [3] is reported as 20%. Besides, the “pre-emergence activity against SETVI” value in the data set on SETVI [4] and in the data set on SETVI [7] was 100% throughout. In the data set with MATIN [5], the “post-emergence activity against MATIN” value was 90%. The “pre-emergence activity against MATIN” value with MATIN [6] is listed as 90%. Also, the “pre-emergence activity against ABUTH” value in the data set with ABUTH worked out at 90%. In addition, the “post-emergence activity against ZEAMX” value in the data set with ZEAMX [8] was 0%. Besides, the “post-emergence activity against GLXMA” value in the data set with GLXMA stood at 0%. Moreover, in the data set with POAAN [9], the “pre-emergence activity against POAAN” value was 100%. Also, the “post-emergence activity against TRZAS” value in the data set on TRZAS [10] came out at 0%. Further, the “pre-emergence activity against LOLRI” value in the data set on LOLRI [11] and in the data set with LOLRI [13] (application rate 1280 g/ha) was 100% each time. Further, in the data set on ZEAMX [12], the “pre-emergence activity against ZEAMX” value is recorded as 20%. The “pre-emergence activity against STEME” value in the data set on STEME came out at 90%. Further, the “pre-emergence activity against TRZAS” value with TRZAS [14] was found to be 20%. The “pre-emergence activity against ECHCG” value in the data set on ECHCG [15] and in the data set on ECHCG [18] was 100% each time. The “post-emergence activity against ALOMY” value with ALOMY [16] amounted to 80%. For the same compound, in the data set on ORYZA [17], the “post-emergence activity against ORYZA” value amounted to 10%. In addition, in the data set with ORYZA [19], the “pre-emergence activity against ORYZA” value was 10%. The “post-emergence activity against POAAN” value in the data set on POAAN [20] (application rate 320 g/ha) turned out to be 100%. The “pre-emergence activity against VIOTR” value in the data set with VIOTR worked out at 80%. Also, the “pre-emergence activity against BRSNW” value with BRSNW [21] came to 0%.

With `O=C1N(Cc2ccccc2Br)CCCC12CCCN(Cc1cccc(F)c1F)C2=O` (racemic) [I-055], in the data set with ALOMY [22], the “post-emergence activity against ALOMY” value worked out at 90%. The “pre-emergence activity against SETVI” value in the data set on SETVI [7] was found to be 90%. Besides, the “post-emergence activity against ECHCG” value with ECHCG [23] worked out at 90%. Besides, in the data set with LOLRI [13] (application rate 320 g/ha), the “pre-emergence activity against LOLRI” value is 100%. Further, in the data set with ECHCG [18], the “pre-emergence activity against ECHCG” value is listed as 100%. Besides, the “post-emergence activity against VERPE” value in the data set on VERPE [24] (application rate 320 g/ha) was determined as 90%.

For the compound `O=C1N(Cc2ccccc2F)CCCC12CCCN(Cc1ccccc1Br)C2=O` (racemic) [I-042], the “post-emergence activity against ALOMY” value in the data set with ALOMY [22] was determined as 90%. In the data set with SETVI [7], the “pre-emergence activity against SETVI” value is 90%. The “pre-emergence activity against POAAN” value in the data set on POAAN [9] was 100%. In the data set with LOLRI [13] (application rate 1280 g/ha), the “pre-emergence activity against LOLRI” value is 100%. The “pre-emergence activity against ECHCG” value in the data set on ECHCG [18] is 100%. Also, the “post-emergence activity against VERPE” value in the data set with VERPE [24] (application rate 1280 g/ha) is reported as 90%. Also, in the data set on POAAN [20] (application rate 1280 g/ha), the “post-emergence activity against POAAN” value is 90%.
